In patent US20060073530A1 (priority 2001, published 2006):
Values joined by “and” are separate entries in the source; they are usually repeats but may differ in a detail not shown here. Identical values can stand only once. “Also recorded” adds a separate entry of the source. Like-named read-outs stand apart in the source and are kept apart here.

Legend:
[1] = molecular target: sortase (cleavage of sorting signals at the LPXTG motif) (Staphylococcus aureus, UniProt Q2FV99); type: cell-based, S. aureus OS2
SrtADN = SrtADN (Staphylococcus aureus, UniProt Q2FV99); type: biochemical, S. aureus
SrtBΔN = SrtBΔN (Staphylococcus aureus, UniProt Q2FZE3, E55A/N120I/R216K); type: biochemical, S. aureus; details: for SrtBΔN cleavage of NPQTN peptides: incubation of purified enzyme with inhibitor
sortase = sortase (Staphylococcus aureus, UniProt Q2FV99); type: biochemical, staphylococcal
[2] = test system: Sec-dependent export of P1 precursor (SecA); type: cell-based, S. aureus OS2
staphylococci [3] = type: cell-based, S. aureus OS2
[4] = test system: surface protein SEB-MH6-CWS; type: cell-based, S. aureus OS2 and BB270
[5] = test system: surface protein SEB-SPA490-524 (sortase acyl-enzyme intermediates); type: cell-based, S. aureus
[6] = test system: cell wall sorting of Seb-Spa490-524; type: cell-based, S. aureus OS2
staphylococci [7] = experiment: Growth of staphylococci in the presence of antibiotics; type: cell-based, S. aureus OS2
[8] = test system: bacterial cell wall synthesis; type: cell-based, S. aureus

O[C@H](CS)[C@H](O)CS (racemic) [dithiothreitol]
cleavage of sorting signals at the LPXTG motif (cell wall sorting reaction) [1]: did not affect the sorting reaction | LPXTG peptide cleavage activity restored (SrtADN; MTSET-inactivated SrtADN incubated with 10 mM DTT): 80% | SrtB-mediated cleavage of NPQTN peptide (SrtBΔN; addition of DTT, even in the presence of MTSET): greatly stimulated SrtB-mediated cleavage

O=C(O)CN(CCN(CC(=O)O)CC(=O)O)CC(=O)O [EDTA]
cleavage of sorting signals at the LPXTG motif (cell wall sorting reaction) [1]: Neither PMSF, which reacts with hydroxyl (Creighton, 1993), nor treatment with the divalent cation chelator EDTA interfered with cell wall sorting

CS(=O)(=O)SCCS(=O)(=O)[O-].[Na+] [MTSES]
cleavage of sorting signals at the LPXTG motif (cell wall sorting reaction) [1]: interfered with sorting albeit not as effectively as MTSET

C[N+](C)(C)CCSS(C)(=O)=O [MTSET, [2-(trimethylammonium)ethyl]methanethiosulfonate]
hydroxylaminolysis of LPXTG peptide (sortase; pre-incubation of staphylococcal extracts with MTSET): inhibited | cleavage of sorting signals at the LPXTG motif (cell wall sorting reaction) [1]: sensitive; also recorded: interfered with the cleavage of sorting signals at the LPXTG motif | Sec-dependent export of P1 precursor [2]: remained unaltered | incorporation of [35S]methionine by staphylococci (staphylococci [3]): prevented incorporation | hydroxylaminolysis of LPXTG peptide by SrtADN (SrtADN; pre-incubation with MTSET): abolished all enzymatic activity | SrtBΔN cleavage of NPQTN peptides (SrtBΔN): inhibited

CCN1C(=O)C=CC1=O [N-ethylmaleimide]
cleavage of sorting signals at the LPXTG motif (cell wall sorting reaction) [1]: did not

NO [NH2OH, hydroxylamine]
fluorescence intensity (LPXTG peptide cleavage) (sortase; 0.1 M NH2OH added to staphylococcal extracts): forty fold increase in fluorescence intensity | release of SEB-MH6-CWS [4]: caused the release of SEB-MH6-CWS | amounts of released surface proteins [5]: increased amounts of released surface proteins | surface proteins released into the extra-cellular medium [5]: 16.9% and 12.7%

O=S(=O)(F)Cc1ccccc1 [PMSF]
cleavage of sorting signals at the LPXTG motif (cell wall sorting reaction) [1]: Neither PMSF, which reacts with hydroxyl (Creighton, 1993), nor treatment with the divalent cation chelator EDTA interfered with cell wall sorting

NC(=O)CI [iodoacetamide]
cleavage of sorting signals at the LPXTG motif (cell wall sorting reaction) [1]: did not

O=C(O)CI [iodoacetate]
cleavage of sorting signals at the LPXTG motif (cell wall sorting reaction) [1]: did not

OCCS [mercaptoethanol]
cleavage of sorting signals at the LPXTG motif (cell wall sorting reaction) [1]: did not affect the sorting reaction

CSS(C)(=O)=O [methylmethane thiosulfonate]
peptide bond hydrolysis / cleavage of LPETG peptide (SrtADN; SrtA DN, absence of the peptidoglycan substrate): inhibited

O=C(O)c1cc[c]([Hg][OH])cc1 [pHMB, p-hydroxymercuribenzoic acid]
cleavage of sorting signals at the LPXTG motif (cell wall sorting reaction) [1]: chemical inhibitors of the sorting reaction; also recorded: displayed an inhibitory effect | SrtAΔN cleavage of LPXTG containing peptides (SrtADN; incubation of purified enzyme with inhibitor): inhibited | SrtBΔN cleavage of NPQTN peptides (SrtBΔN): inhibited

CC1(C)S[C@@H]2[C@H](NC(=O)Cc3ccccc3)C(=O)N2[C@H]1C(=O)O [penicillin, penicillin G]
rate of cell wall sorting (P2 precursor accumulation) [6]: did not alter the rate of cell wall sorting | growth rate of staphylococci (staphylococci [7]): reduced the growth rate

CN[C@H](CC(C)C)C(=O)N[C@H]1C(=O)N[C@@H](CC(N)=O)C(=O)N[C@H]2C(=O)N[C@H]3C(=O)N[C@H](C(=O)N[C@H](C(=O)O)c4cc(O)cc(O)c4-c4cc3ccc4O)[C@H](O)c3ccc(c(Cl)c3)Oc3cc2cc(c3O[C@@H]2O[C@H](CO)[C@@H](O)[C@H](O)[C@H]2O[C@H]2C[C@](C)(N)[C@H](O)[C@H](C)O2)Oc2ccc(cc2Cl)[C@H]1O [vancomycin]
rate of cell wall sorting (P2 precursor accumulation) [6]: steady accumulation of P2 precursor | inhibition of cell wall synthesis [8]: 20 fold | ratio of incorporated [3H]lysine/[3H]leucine [8]: 1.5 | growth rate of staphylococci (staphylococci [7]): reduced the growth rate

moenomycin
rate of cell wall sorting (P2 precursor accumulation) [6]: similar, albeit weaker effect | growth rate of staphylococci (staphylococci [7]; 10 μg/ml antibiotic, compared to mock treated control): reduced the growth rate
